Assay results taken from patent US8192962B2, “Processes for detecting toxic substances” (Daikin Industries, Ltd., priority 2001, dated 2012).

System: Unknown protein yeast genes
Test: DNA chip mRNA expression in yeast, unknown protein yeast genes (Table 1)
Type: cell-based, Saccharomyces cerevisiae S288C
Summary of the method: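 Value is the scanned fluorescence intensity ratio of exposed versus chemical-free cells. Log-phase S288C yeast in YPD at 25° C. received one toxic substance for two hours, dosed to slow growth without killing; Cy3/Cy5-labeled cDNA from oligo-dT-purified mRNA was hybridized to a whole-genome chip at 65° C.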

## COc1cc(CNC(=O)CCCCC=CC(C)C)ccc1O [(12), 8-methyl-N-vanillyl-6-nonenamide]
Yeast gene YAL053W, incubated two hours with chemical substance
  The level of expressed mRNA in the presence of chemical substance/The level of expressed mRNA in the absence of chemical substance: 0.6
Yeast gene YBL048W
  The level of expressed mRNA in the presence of chemical substance/The level of expressed mRNA in the absence of chemical substance: 1.2
Yeast gene YBL107C
  The level of expressed mRNA in the presence of chemical substance/The level of expressed mRNA in the absence of chemical substance: 1.4
Yeast gene YCR043C
  The level of expressed mRNA in the presence of chemical substance/The level of expressed mRNA in the absence of chemical substance: 0.6
Yeast gene YCR102C
  The level of expressed mRNA in the presence of chemical substance/The level of expressed mRNA in the absence of chemical substance: 0.5
Yeast gene YDL072C, incubated two hours with chemical substance
  The level of expressed mRNA in the presence of chemical substance/The level of expressed mRNA in the absence of chemical substance: 1.2
Yeast gene YDL204W, incubated two hours with chemical substance
  The level of expressed mRNA in the presence of chemical substance/The level of expressed mRNA in the absence of chemical substance: 0.9
Yeast gene YDL222C, incubated two hours with chemical substance
  The level of expressed mRNA in the presence of chemical substance/The level of expressed mRNA in the absence of chemical substance: 1.0
Yeast gene YDR330W, incubated two hours with chemical substance
  The level of expressed mRNA in the presence of chemical substance/The level of expressed mRNA in the absence of chemical substance: 1.0
Yeast gene YDR411C, incubated two hours with chemical substance
  The level of expressed mRNA in the presence of chemical substance/The level of expressed mRNA in the absence of chemical substance: 1.5
Yeast gene YDR511W, incubated two hours with chemical substance
  The level of expressed mRNA in the presence of chemical substance/The level of expressed mRNA in the absence of chemical substance: 0.8
Yeast gene YDR545W, incubated two hours with chemical substance
  The level of expressed mRNA in the presence of chemical substance/The level of expressed mRNA in the absence of chemical substance: 0.9
Yeast gene YEL001C, incubated two hours with chemical substance
  The level of expressed mRNA in the presence of chemical substance/The level of expressed mRNA in the absence of chemical substance: 1.1
Yeast gene YER004W, incubated two hours with chemical substance
  The level of expressed mRNA in the presence of chemical substance/The level of expressed mRNA in the absence of chemical substance: 1.7
Yeast gene YER035W, incubated two hours with chemical substance
  The level of expressed mRNA in the presence of chemical substance/The level of expressed mRNA in the absence of chemical substance: 1.1
Yeast gene YER079W, incubated two hours with chemical substance
  The level of expressed mRNA in the presence of chemical substance/The level of expressed mRNA in the absence of chemical substance: 0.9
Yeast gene YER106W, incubated two hours with chemical substance
  The level of expressed mRNA in the presence of chemical substance/The level of expressed mRNA in the absence of chemical substance: 0.9
Yeast gene YER158C, incubated two hours with chemical substance
  The level of expressed mRNA in the presence of chemical substance/The level of expressed mRNA in the absence of chemical substance: 1.0
Yeast gene YER163C, incubated two hours with chemical substance
  The level of expressed mRNA in the presence of chemical substance/The level of expressed mRNA in the absence of chemical substance: 1.0
Yeast gene YER175C, incubated two hours with chemical substance
  The level of expressed mRNA in the presence of chemical substance/The level of expressed mRNA in the absence of chemical substance: 0.9
Yeast gene YFL006W, incubated two hours with chemical substance
  The level of expressed mRNA in the presence of chemical substance/The level of expressed mRNA in the absence of chemical substance: 1.2
Yeast gene YFL010C, incubated two hours with chemical substance
  The level of expressed mRNA in the presence of chemical substance/The level of expressed mRNA in the absence of chemical substance: 1.5
Yeast gene YFL024C
  The level of expressed mRNA in the presence of chemical substance/The level of expressed mRNA in the absence of chemical substance: 0.8
Yeast gene YFL032W, incubated two hours with chemical substance
  The level of expressed mRNA in the presence of chemical substance/The level of expressed mRNA in the absence of chemical substance: 0.7
Yeast gene YGL037C, incubated two hours with chemical substance
  The level of expressed mRNA in the presence of chemical substance/The level of expressed mRNA in the absence of chemical substance: 0.8
Yeast gene YGL047W, incubated two hours with chemical substance
  The level of expressed mRNA in the presence of chemical substance/The level of expressed mRNA in the absence of chemical substance: 1.1
Yeast gene YGL053W, incubated two hours with chemical substance
  The level of expressed mRNA in the presence of chemical substance/The level of expressed mRNA in the absence of chemical substance: 1.3
Yeast gene YGL121C
  The level of expressed mRNA in the presence of chemical substance/The level of expressed mRNA in the absence of chemical substance: 1.6
Yeast gene YGL199C, incubated two hours with chemical substance
  The level of expressed mRNA in the presence of chemical substance/The level of expressed mRNA in the absence of chemical substance: 0.9
Yeast gene YGR101W, incubated two hours with chemical substance
  The level of expressed mRNA in the presence of chemical substance/The level of expressed mRNA in the absence of chemical substance: 1.0
Yeast gene YGR110W
  The level of expressed mRNA in the presence of chemical substance/The level of expressed mRNA in the absence of chemical substance: 1.4
Yeast gene YGR130C, incubated two hours with chemical substance
  The level of expressed mRNA in the presence of chemical substance/The level of expressed mRNA in the absence of chemical substance: 0.7
Yeast gene YGR154C, incubated two hours with chemical substance
  The level of expressed mRNA in the presence of chemical substance/The level of expressed mRNA in the absence of chemical substance: 0.9
Yeast gene YGR221C, incubated two hours with chemical substance
  The level of expressed mRNA in the presence of chemical substance/The level of expressed mRNA in the absence of chemical substance: 1.6
Yeast gene YHL042W
  The level of expressed mRNA in the presence of chemical substance/The level of expressed mRNA in the absence of chemical substance: 0.6
Yeast gene YHR138C, incubated two hours with chemical substance
  The level of expressed mRNA in the presence of chemical substance/The level of expressed mRNA in the absence of chemical substance: 1.8
Yeast gene YHR199C, incubated two hours with chemical substance
  The level of expressed mRNA in the presence of chemical substance/The level of expressed mRNA in the absence of chemical substance: 1.1
Yeast gene YIL012W
  The level of expressed mRNA in the presence of chemical substance/The level of expressed mRNA in the absence of chemical substance: 0.6
Yeast gene YIL023C, incubated two hours with chemical substance
  The level of expressed mRNA in the presence of chemical substance/The level of expressed mRNA in the absence of chemical substance: 0.9
Yeast gene YIL041W, incubated two hours with chemical substance
  The level of expressed mRNA in the presence of chemical substance/The level of expressed mRNA in the absence of chemical substance: 1.0
Yeast gene YIL057C
  The level of expressed mRNA in the presence of chemical substance/The level of expressed mRNA in the absence of chemical substance: 0.6
Yeast gene YIL087C, incubated two hours with chemical substance
  The level of expressed mRNA in the presence of chemical substance/The level of expressed mRNA in the absence of chemical substance: 1.1
Yeast gene YIL089W
  The level of expressed mRNA in the presence of chemical substance/The level of expressed mRNA in the absence of chemical substance: 0.6
Yeast gene YIL102C
  The level of expressed mRNA in the presence of chemical substance/The level of expressed mRNA in the absence of chemical substance: 0.6
Yeast gene YJL057C, incubated two hours with chemical substance
  The level of expressed mRNA in the presence of chemical substance/The level of expressed mRNA in the absence of chemical substance: 1.0
Yeast gene YJL066C, incubated two hours with chemical substance
  The level of expressed mRNA in the presence of chemical substance/The level of expressed mRNA in the absence of chemical substance: 1.0
Yeast gene YJL082W, incubated two hours with chemical substance
  The level of expressed mRNA in the presence of chemical substance/The level of expressed mRNA in the absence of chemical substance: 1.3
Yeast gene YJL151C, incubated two hours with chemical substance
  The level of expressed mRNA in the presence of chemical substance/The level of expressed mRNA in the absence of chemical substance: 1.3
Yeast gene YJL152W, incubated two hours with chemical substance
  The level of expressed mRNA in the presence of chemical substance/The level of expressed mRNA in the absence of chemical substance: 1.0
Yeast gene YJL161W, incubated two hours with chemical substance
  The level of expressed mRNA in the presence of chemical substance/The level of expressed mRNA in the absence of chemical substance: 1.0
Yeast gene YJL171C, incubated two hours with chemical substance
  The level of expressed mRNA in the presence of chemical substance/The level of expressed mRNA in the absence of chemical substance: 1.0
Yeast gene YJR008W, incubated two hours with chemical substance
  The level of expressed mRNA in the presence of chemical substance/The level of expressed mRNA in the absence of chemical substance: 1.3
Yeast gene YJR054W, incubated two hours with chemical substance
  The level of expressed mRNA in the presence of chemical substance/The level of expressed mRNA in the absence of chemical substance: 0.9
Yeast gene YKL071W
  The level of expressed mRNA in the presence of chemical substance/The level of expressed mRNA in the absence of chemical substance: 1.0
